Measured values as given in ChEMBL document CHEMBL3243937, “Adriamycin analogues. 2. Synthesis of 13-deoxyanthracyclines” (1978).

Columns and labels:
P388 [1] = assay: Antitumor activity against mouse P388 cells allografted in mouse assessed as increase in survival time at 3.13 mg/kg, ip qd administered starting from day 1 to day 9 post challenge relative to control; type: functional; details: route intraperitoneal
P388 [2] = assay: Antitumor activity against mouse P388 cells allografted in mouse assessed as increase in survival time at 1.56 mg/kg, ip qd administered starting from day 1 to day 9 post challenge relative to control; type: functional; details: route intraperitoneal
L1210 [3] = assay: Inhibition of RNA synthesis in mouse L1210 cells compound preincubated for 3 hrs followed by [3H]uridine addition measured after 1 hr by scintillation counting; type: functional
Calf thymus DNA = assay: Binding affinity to calf thymus DNA by spectral analysis; type: nucleic-acid assay; details: Bos taurus
P388 [4] = assay: Antitumor activity against mouse P388 cells allografted in mouse assessed as increase in survival time at 0.78 mg/kg, ip qd administered starting from day 1 to day 9 post challenge relative to control; type: functional; details: route intraperitoneal
L1210 [5] = assay: Inhibition of DNA synthesis in mouse L1210 cells compound preincubated for 3 hrs followed by [3H]thymidine addition measured after 1 hr by scintillation counting; type: functional
P388 [6] = assay: Antitumor activity against mouse P388 cells allografted in mouse assessed as increase in survival time at 0.39 mg/kg, ip qd administered starting from day 1 to day 9 post challenge relative to control; type: functional; details: route intraperitoneal
P388 [7] = assay: Antitumor activity against mouse P388 cells allografted in mouse assessed as increase in survival time at 0.20 mg/kg, ip qd administered starting from day 1 to day 9 post challenge relative to control; type: functional; details: dose 0.2 mg/kg; route intraperitoneal
P388 [8] = assay: Antitumor activity against mouse P388 cells allografted in mouse assessed as increase in survival time at 16 mg/kg, ip qd administered starting on day 5,9 and 13 post challenge relative to control; type: functional; details: route intraperitoneal
P388 [9] = assay: Antitumor activity against mouse P388 cells allografted in mouse assessed as increase in survival time at 8 mg/kg, ip qd administered starting on day 5,9 and 13 post challenge relative to control; type: functional; details: route intraperitoneal
P388 [10] = assay: Antitumor activity against mouse P388 cells allografted in mouse assessed as increase in survival time at 4 mg/kg, ip qd administered starting on day 5,9 and 13 post challenge relative to control; type: functional; details: route intraperitoneal
P388 [11] = assay: Antitumor activity against mouse P388 cells allografted in mouse assessed as increase in survival time at 2 mg/kg, ip qd administered starting on day 5,9 and 13 post challenge relative to control; type: functional; details: route intraperitoneal
P388 [12] = assay: Antitumor activity against mouse P388 cells allografted in mouse assessed as increase in survival time at 1 mg/kg, ip qd administered starting on day 5,9 and 13 post challenge relative to control; type: functional; details: route intraperitoneal
P388 [13] = assay: Antitumor activity against mouse P388 cells allografted in mouse assessed as increase in survival time at 6.25 mg/kg, ip qd administered starting from day 1 to day 9 post challenge relative to control; type: functional; details: route intraperitoneal
P388 [14] = assay: Antitumor activity against mouse P388 cells allografted in mouse assessed as increase in survival time at 5.3 mg/kg, ip qd administered starting from day 1 to day 9 post challenge relative to control; type: functional; details: route intraperitoneal
P388 [15] = assay: Antitumor activity against mouse P388 cells allografted in mouse assessed as increase in survival time at 8 mg/kg, ip qd administered starting from day 1 to day 9 post challenge relative to control; type: functional; details: route intraperitoneal
P388 [16] = assay: Antitumor activity against mouse P388 cells allografted in mouse assessed as increase in survival time at 4 mg/kg, ip qd administered starting from day 1 to day 9 post challenge relative to control; type: functional; details: route intraperitoneal
P388 [17] = assay: Antitumor activity against mouse P388 cells allografted in mouse assessed as increase in survival time at 12 mg/kg, ip qd administered starting from day 1 to day 9 post challenge relative to control; type: functional; details: route intraperitoneal
P388 [18] = assay: Antitumor activity against mouse P388 cells allografted in mouse assessed as increase in survival time at 1.5 mg/kg, ip qd administered starting from day 1 to day 9 post challenge relative to control; type: functional; details: route intraperitoneal
P388 [19] = assay: Antitumor activity against mouse P388 cells allografted in mouse assessed as increase in survival time at 3.5 mg/kg, ip qd administered starting from day 1 to day 9 post challenge relative to control; type: functional; details: route intraperitoneal

| Structure (SMILES) | T/C (P388 [1]) | T/C (P388 [2]) | IC50 (L1210 [3]) | ΔTm (Calf thymus DNA) | T/C (P388 [4]) | IC50 (L1210 [5]) | T/C (P388 [6]) | T/C (P388 [7]) | T/C (P388 [8]) | T/C (P388 [9]) | T/C (P388 [10]) | T/C (P388 [11]) | T/C (P388 [12]) | T/C (P388 [13]) | T/C (P388 [14]) | T/C (P388 [15]) | T/C (P388 [16]) | T/C (P388 [17]) | T/C (P388 [18]) | T/C (P388 [19]) |
| --- | --- | --- | --- | --- | --- | --- | --- | --- | --- | --- | --- | --- | --- | --- | --- | --- | --- | --- | --- | --- |
| CC[C@]1(O)Cc2c(O)c3c(c(O)c2[C@@H](O[C@H]2C[C@H](N)[C@H](O)[C@H](C)O2)C1)C(=O)c1c(OC)cccc1C3=O | 160% | 160% | 840 nM | 50 °C | 134% | 1300 nM | 140% |  |  |  |  |  |  |  |  |  |  |  |  |  |
| COc1cccc2c1C(=O)c1c(O)c3c(c(O)c1C2=O)C[C@@](O)(C(=O)CO)C[C@@H]3O[C@H]1C[C@H](N)[C@H](O)[C@H](C)O1 [DOXORUBICIN] |  | 176% | 580 nM | 13.4 °C | 197% | 1500 nM | 174% | 160% | 130% | 157% | 142% | 133% | 133% |  |  |  |  |  |  |  |
| COc1cccc2c1C(=O)c1c(O)c3c(c(O)c1C2=O)C[C@@](O)(C(C)=O)C[C@@H]3O[C@H]1C[C@H](N)[C@H](O)[C@H](C)O1 [DAUNORUBICIN] |  | 148% | 330 nM |  | 167% | 660 nM | 153% | 144% | 127% | 134% | 131% |  |  |  |  |  |  |  |  |  |
| COc1cccc2c1C(=O)c1c(O)c3c(c(O)c1C2=O)C[C@@](O)(CCO)C[C@@H]3O[C@H]1C[C@H](N)[C@H](O)[C@H](C)O1 [13-DEOXYDOXORUBICIN] | 164% | 156% | 1100 nM | 6.15 °C | 161% | 1800 nM | 140% |  |  |  |  |  |  | 153% |  |  |  |  |  |  |
| CC[C@@]1(O)C[C@H](O[C@H]2C[C@H](N)[C@H](O)[C@H](C)O2)c2c(O)c3c(c(O)c2[C@H]1C(=O)OC)C(=O)c1cccc(O)c1C3=O.Cl |  |  | 2600 nM | 7.6 °C |  | 5600 nM |  |  |  |  |  |  |  |  | 139% | 140% | 132% | 141% | 127% | 130% |
